Test results from patent US10669283B2, “Compound and pharmacologically acceptable salt thereof” (MEIJI SEIKA PHARMA CO., LTD., priority 2016, dated 2020).

System: PDE4
Assay: PDE4 inhibition, scintillation proximity assay (SPA);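 further: A below 100 nM B 100 to below 1000 nM C 1000 nM or more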
Assay type: biochemical
Settings: scintillation proximity assay (SPA); evaluated as classes A, B, C; read-out: PDE4 Inhibitory Activity (concentration for the inhibition rate of 50%)
Protocol: The PDE4 inhibitory activity was measured using scintillation proximity assay (SPA) as follows. A sample compound dissolved in dimethyl sulfoxide was diluted 1:10 in reaction buffer solution which contained 50 mM of Tris-HCl with pH 7.4, 8.3 mM of MgCl2, 1.7 mM of EGTA, and 3 mg/mL of bovine serum albumin (BSA). Then, 10 μL of the diluted solution was added in a 96-well assay plate. Moreover, 50 μL of PDE4 diluted 1:375 in the reaction buffer solution was added, and then 40 μL of [2,8-^3H]-adenosine-3′,5′-cyclic phosphate triethylammonium salt diluted 1:1000 in the reaction buffer solution was added. The mixture was allowed to stand at room temperature for 120 minutes. Thereafter, […] of RNA binding YSi-SPA beads suspension containing ZnSO4 was added and the mixture was allowed to stand at room temperature for 15 minutes, followed by adsorption of the enzyme reaction product to the beads. After that, the radioactivity was measured using a liquid scintillation counter for a 96-well plate. The mixture without the enzyme preparation added but only the reaction buffer solution added is a blank, and the mixture with the enzyme preparation added and only dimethyl sulfoxide added instead of the sample solution is a control.

SMILES | IC50
CON=C(C)c1cc(-c2nccs2)c2oc(N3CC4CCC(C3)N4)nc2c1OC(F)(F)F (mixture of isomers) [Example 218, (E)-1-(2-(3,8-diazabicyclo[3.2.1]octan-3-yl)-7-(thiazol-2-yl)-4-(trifluoromethoxy)benzo[d]oxazol-5-yl)ethan-1-one O-methyloxime and (Z)-1-(2-(3,8-diazabicyclo[3.2.1]octan-3-yl)-7-(thiazol-2-yl)-4-(trifluoromethoxy)benzo[d]oxazol-5-yl)ethan-1-one O-methyloxime] | < 100 nM
OC(c1cc(-c2nccs2)c2oc(N3CC4CCC(C3)N4)nc2c1)C(F)(F)F (racemic) [Example 137, 1-(2-(3,8-Diazabicyclo[3.2.1]octan-3-yl)-7-(thiazol-2-yl)benzo[d]oxazol-5-yl)-2,2,2-trifluoroethan-1-ol] | < 100 nM
CC(O)C(F)(F)Oc1ccc(-c2nccs2)c2oc(N3CC4CC(C3)N4)nc12 (racemic) [Example 250, 1-((2-(3,6-Diazabicyclo[3.1.1]heptan-3-yl)-7-(thiazol-2-yl)benzo[d]oxazol-4-yl)oxy)-1,1-difluoropropan-2-ol] | < 100 nM
FC(F)(F)Oc1c(Cl)cc(-c2nccs2)c2oc(N3CC4CCC(C3)N4)nc12 [Example 1, 2-(3,8-Diazabicyclo[3.2.1]octan-3-yl)-5-chloro-7-(thiazol-2-yl)-4-(trifluoromethoxy)benzo[d]oxazole] | < 100 nM
FC(F)(F)Oc1c(Cl)cc(-c2nccs2)c2oc(N3CC4CCCC(C3)N4)nc12 [Example 2, 2-(3,9-Diazabicyclo[3.3.1]nonan-3-yl)-5-chloro-7-(thiazol-2-yl)-4-(trifluoromethoxy)benzo[d]oxazole] | < 100 nM
FC(F)(F)Oc1c(Cl)cc(-c2nccs2)c2oc(N3CC4COCC(C3)N4)nc12 [Example 4, 7-(5-Chloro-7-(thiazol-2-yl)-4-(trifluoromethoxy)benzo [d]oxazol-2-yl)-3-oxa-7,9-diazabicyclo[3.3.1]nonane] | < 100 nM
FC(F)(F)Oc1c(Cl)cc(-c2ccco2)c2oc(N3CC4CCC(C3)N4)nc12 [Example 6, 2-(3,8-Diazabicyclo[3.2.1]octan-3-yl)-5-chloro-7-(furan-2-yl)-4-(trifluoromethoxy)benzo[d]oxazole] | < 100 nM
FC(F)(F)Oc1c(Cl)cc(-c2ccccn2)c2oc(N3CC4CCC(C3)N4)nc12 [Example 7, 2-(3,8-Diazabicyclo[3.2.1]octan-3-yl)-5-chloro-7-(pyridin-2-yl)-4-(trifluoromethoxy)benzo[d]oxazole] | < 100 nM
FC(F)(F)Oc1c(Cl)cc(-c2ncco2)c2oc(N3CC4CCC(C3)N4)nc12 [Example 9, 2-(3,8-Diazabicyclo[3.2.1]octan-3-yl)-5-chloro-7-(oxazol-2-yl)-4-(trifluoromethoxy)benzo[d]oxazole] | < 100 nM
FC(F)(F)c1c(Cl)cc(-c2ccccn2)c2oc(N3CC4CCC(C3)N4)nc12 [Example 11, 2-(3,8-Diazabicyclo[3.2.1]octan-3-yl)-5-chloro-7-(pyridin-2-yl)-4-(trifluoromethyl)benzo[d]oxazole] | < 100 nM
FC(F)(F)c1c(Cl)cc(-c2ccccn2)c2oc(N3CC4CC(C3)N4)nc12 [Example 13, 2-(3,6-Diazabicyclo[3.1.1]heptan-3-yl)-5-chloro-7-(pyridin-2-yl)-4-(trifluoromethyl)benzo[d]oxazole] | < 100 nM
FC(F)(F)c1c(Cl)cc(-c2ccccn2)c2oc(N3CC4COCC(C3)N4)nc12 [Example 14, 7-(5-Chloro-7-(pyridin-2-yl)-4-(trifluoromethyl)benzo[d]oxazol-2-yl)-3-oxa-7,9-diazabicyclo[3.3.1]nonane] | 100 to 1000 nM
FC(F)(F)c1c(Cl)cc(-n2cccn2)c2oc(N3CC4CCC(C3)N4)nc12 [Example 15, 2-(3,8-Diazabicyclo[3.2.1]octan-3-yl)-5-chloro-7-(1H-pyrazol-1-yl)-4-(trifluoromethyl)benzo[d]oxazole] | < 100 nM
FC(F)(F)c1c(Cl)cc(-n2cccn2)c2oc(N3CC4CCCC(C3)N4)nc12 [Example 16, 2-(3,9-Diazabicyclo[3.3.1]nonan-3-yl)-5-chloro-7-(1H-pyrazol-1-yl)-4-(trifluoromethyl)benzo[d]oxazole] | < 100 nM
FC(F)(F)c1c(Cl)cc(-n2cccn2)c2oc(N3CC4COCC(C3)N4)nc12 [Example 18, 7-(5-Chloro-7-(1H-pyrazol-1-yl)-4-(trifluoromethyl)benzo[d]oxazol-2-yl)-3-oxa-7,9-diazabicyclo[3.3.1]nonane] | 100 to 1000 nM
FC(F)(F)c1c(Cl)cc(-c2nccs2)c2oc(N3CC4COCC(C3)N4)nc12 [Example 19, 7-(5-Chloro-7-(thiazol-2-yl)-4-(trifluoromethyl)benzo[d]oxazol-2-yl)-3-oxa-7,9-diazabicyclo[3.3.1]nonane] | < 100 nM
FC(F)(F)c1c(Cl)cc(-c2nccs2)c2oc(N3CC4CCC(C3)N4)nc12 [Example 20, 2-(3,8-Diazabicyclo[3.2.1]octan-3-yl)-5-chloro-7-(thiazol-2-yl)-4-(trifluoromethyl)benzo[d]oxazole] | < 100 nM
CC(C)c1cc(-c2nccs2)c2oc(N3CC4CCC(C3)N4)nc2c1 [Example 21, 2-(3,8-Diazabicyclo[3.2.1]octan-3-yl)-5-isopropyl-7-(thiazol-2-yl)benzo[d]oxazole] | < 100 nM

SMILES | IC50
CC(C)c1cc(-c2nccs2)c2oc(N3CC4CC(C3)N4)nc2c1 [Example 22] | < 100 nM
CC(C)c1cc(-c2nccs2)c2oc(N3CC4COCC(C3)N4)nc2c1 [Example 23, 7-(5-Isopropyl-7-(thiazol-2-yl)benzo[d]oxazol-2-yl)-3-oxa-7,9-diazabicyclo[3.3.1]nonane] | 100 to 1000 nM
CC(C)c1cc(-c2nccs2)c2oc(N3CC4CCCC(C3)N4)nc2c1 [Example 24, 2-(3,9-Diazabicyclo[3.3.1]nonan-3-yl)-5-isopropyl-7-(thiazol-2-yl)benzo[d]oxazole] | < 100 nM
Cc1ccc(-c2nccs2)c2oc(N3CC4CCC(C3)N4)nc12 [Example 25, 2-(3,8-Diazabicyclo[3.2.1]octan-3-yl)-4-methyl-7-(thiazol-2-yl)benzo[d]oxazole] | < 100 nM
Cc1ccc(-c2nccs2)c2oc(N3CC4CC(C3)N4)nc12 [Example 26, 2-(3,6-Diazabicyclo[3.1.1]heptan-3-yl)-4-methyl-7-(thiazol-2-yl)benzo[d]oxazole] | < 100 nM
Cc1ccc(-c2nccs2)c2oc(N3CC4CCCC(C3)N4)nc12 [Example 27, 2-(3,9-Diazabicyclo[3.3.1]nonan-3-yl)-4-methyl-7-(thiazol-2-yl)benzo[d]oxazole] | < 100 nM
FC(F)(F)Oc1ccc(-c2nccs2)c2oc(N3CC4CCC(C3)N4)nc12 [Example 28, 2-(3,8-Diazabicyclo[3.2.1]octan-3-yl)-7-(thiazol-2-yl)-4-(trifluoromethoxy)benzo[d]oxazole] | < 100 nM
FC(F)(F)Oc1ccc(-c2nccs2)c2oc(N3CC4CCCC(C3)N4)nc12 [Example 30, 2-(3,9-Diazabicyclo[3.3.1]nonan-3-yl)-7-(thiazol-2-yl)-4-(trifluoromethoxy)benzo[d]oxazole] | < 100 nM
FC(F)(F)c1ccc(-c2nccs2)c2oc(N3CC4CCC(C3)N4)nc12 [Example 31, 2-(3,8-Diazabicyclo[3.2.1]octan-3-yl)-7-(thiazol-2-yl)-4-(trifluoromethyl)benzo[d]oxazole] | < 100 nM
FC(F)(F)c1ccc(-c2nccs2)c2oc(N3CC4CC(C3)N4)nc12 [Example 32, 2-(3,6-Diazabicyclo[3.1.1]heptan-3-yl)-7-(thiazol-2-yl)-4-(trifluoromethyl)benzo[d]oxazole] | < 100 nM
FC(F)(F)c1ccc(-c2nccs2)c2oc(N3CC4CCCC(C3)N4)nc12 [Example 33, 2-(3,9-Diazabicyclo[3.3.1]nonan-3-yl)-7-(thiazol-2-yl)-4-(trifluoromethyl)benzo[d]oxazole] | < 100 nM
CC(=O)Nc1ccc(-c2nccs2)c2oc(N3CC4CCCC(C3)N4)nc12 [Example 34, N-(2-(3,9-Diazabicyclo[3.3.1]nonan-3-yl)-7-(thiazol-2-yl)benzo[d]oxazol-4-yl)acetamide] | < 100 nM
CC(=O)Nc1ccc(-c2nccs2)c2oc(N3CC4CC(C3)N4)nc12 [Example 35, N-(2-(3,6-diazabicyclo[3.1.1]heptan-3-yl)-7-(thiazol-2-yl)benzo[d]oxazol-4-yl)acetamide] | 100 to 1000 nM
Clc1ccc(-c2nccs2)c2oc(N3CC4CCC(C3)N4)nc12 [Example 36, 2-(3,8-Diazabicyclo[3.2.1]octan-3-yl)-4-chloro-7-(thiazol-2-yl)benzo[d]oxazole] | < 100 nM
Clc1ccc(-c2nccs2)c2oc(N3CC4CC(C3)N4)nc12 [Example 37, 2-(3,6-Diazabicyclo[3.1.1]heptan-3-yl)-4-chloro-7-(thiazol-2-yl)benzo[d]oxazole] | < 100 nM
Clc1ccc(-c2nccs2)c2oc(N3CC4CCCC(C3)N4)nc12 [Example 38, 2-(3,9-Diazabicyclo[3.3.1]nonan-3-yl)-4-chloro-7-(thiazol-2-yl)benzo[d]oxazole] | < 100 nM
CSc1cc(-c2nccs2)c2oc(N3CC4CCC(C3)N4)nc2c1 [Example 39, 2-(3,8-Diazabicyclo[3.2.1]octan-3-yl)-5-(methylthio)-7-(thiazol-2-yl)benzo[d]oxazole] | < 100 nM
CSc1cc(-c2nccs2)c2oc(N3CC4CC(C3)N4)nc2c1 [Example 40, 2-(3,6-Diazabicyclo[3.1.1]heptan-3-yl)-5-(methylthio)-7-(thiazol-2-yl)benzo[d]oxazole] | < 100 nM
